Our source for the ED50 values is patent EP0353821B1, “Antipsychotic 3-piperazinyl-benzazole derivatives” (JANSSEN PHARMACEUTICA N.V., priority 1988, dated 1990).

Each structure is given as a SMILES string. Read-outs that look alike come from different tables or passages of the source. Some results are limits rather than exact numbers.

Test [1] has as its system apomorphine-induced phenomena: agitation and stereotypic chewing. Put plainly: Combined apomorphine-, tryptamine- and norepinephrine test in rats: apomorphine (APO) part. Type of test: in vivo, adult male Wistar rats. As to conditions: Rattus norvegicus, read-out: Combined test in rats, ED₅₀ in mg/kg (APO). How it is done:
(§1) The combined apomorphine (APO)-, tryptamine (TRY)- and norepinephrine (NOR) test in rats.
(§2) The experimental animals used in this test were adult male Wistar rats (weight 240 ± 10g). After an overnight fast the animals were treated subcutaneously or orally with an aqueous solution of the compound under investigation (1ml/100g body weight) (time = zero) and put in isolated observation cages. […] At the end of this 1 hour period (time = 90 minutes) the same animals were injected intravenously with 40 mg/kg of tryptamine (TRY) and the presence of the typical tryptamine-induced bilateral tonic seizures and hyperaemia of the ears was noted. Two hours after pretreatment (time = 120 minutes) finally, the same animals were challenged with 1.25 mg/kg intravenously of norephinephrine (NOR) and possible mortality was looked for up to 60 minutes later.
(§3) The table 3 gives the ED₅₀-values of a number of the compounds under consideration. As used herein, the ED₅₀-value represents the dose which protects 50% of the animals from apomorphine-, tryptamine- or norepinephrine-induced phenomena.

Test [2] has as its system apomorphine (emesis). The experiment in a line: The apomorphine test in dogs (APO-dog). The class given is in vivo, beagle dogs. As to conditions: Canis lupus familiaris, 1 h; compound subcutaneously or orally; 0.31 mg/kg (s.c.) apomorphine one hour thereafter; dose which protects 50% of the animals from emesis; read-out: (APO)-dog test, ED₅₀ in mg/kg. How it is done: The apomorphine test in dogs (APO-dog).
The method used is described by P.A.J. Janssen and C.J.E. Niemegeers in Arzneim.-Forsch. (Drug Res.), 9, 765-767 (1959). The compounds listed in table 3 were administered subcutaneously or orally to beagle dogs at different doses and the animals were challenged one hour thereafter with a standard dose of 0.31 mg/kg (s.c.) of apomorphine.
The table 3 gives the ED₅₀-values of a number of the compounds under consideration. As used herein, the ED₅₀ value represents the dose which protects 50% of the animals from emesis.

In test [3] the test system is tryptamine-induced bilateral tonic seizures and hyperaemia of the ears. The experiment in a line: Combined apomorphine-, tryptamine- and norepinephrine test in rats: tryptamine (TRY) part. Type of test: in vivo, adult male Wistar rats. Conditions: Rattus norvegicus, 1.5 h, compound subcutaneously or orally, 40 mg/kg tryptamine i.v. at 90 minutes, dose which protects 50% of the animals, read-out: Combined test in rats. As to the method:
as §1, §2, §3

Test [4] deals with norepinephrine-induced phenomena (mortality). The experiment in a line: Combined apomorphine-, tryptamine- and norepinephrine test in rats: norepinephrine (NOR) part. The class given is in vivo, adult male Wistar rats. As to conditions: Rattus norvegicus; compound subcutaneously or orally; 1.25 mg/kg norepinephrine i.v. at 120 minutes; mortality up to 60 minutes later; dose which protects 50% of the animals; read-out: Combined test in rats; ED₅₀ in mg/kg (NOR). As to the method: as §1, §2, §3

[5] abbreviates: compound subcutaneously or orally, 1.25 mg/kg apomorphine i.v. at 30 minutes, observed 1 hour, dose which protects 50% of the animals.
Where [6] appears, read: bilateral tonic seizures, ED₅₀ in mg/kg (TRY)-convulsions.
[7] abbreviates: hyperaemia of the ears, ED₅₀ in mg/kg (TRY)-hyperaemia.

Consider `Cc1nc2ccccn2c(=O)c1CCN1CCN(c2n[nH]c3cc(F)ccc23)CC1` [Compound 16], for which the ED50 is 0.08 mg/kg in test [1] (setting [5]), less than 0.01 mg/kg in test [2], 0.08 mg/kg in test [3] (setting [6]) and 0.005 mg/kg in test [3] (setting [7]).

For the compound `Cc1nc2sccn2c(=O)c1CCN1CCN(c2noc3cc(F)ccc23)CC1` [Compound 34], the ED50 is 0.31 mg/kg in test [4]; 0.02 mg/kg in test [1] (setting [5]); 0.015 mg/kg in test [2]; 0.08 mg/kg in test [3] (setting [6]); less than 0.01 mg/kg in test [3] (setting [7]).

For `Cc1nc2c(C)cccn2c(=O)c1CCN1CCN(c2noc3ccccc23)CC1` [Compound 45], the ED50 in test [4] was 1.25 mg/kg; in test [1] it was 0.04 mg/kg; in test [2], more than 0.01 mg/kg; in test [3] (setting [6]), 0.08 mg/kg; in test [3] (setting [7]), 0.02 mg/kg.

Regarding `Cc1nc2scc(C)n2c(=O)c1CCN1CCN(c2n[nH]c3cc(F)ccc23)CC1` [Compound 40], the ED50 came out at 0.08 mg/kg in test [4]; 0.02 mg/kg in test [1] (setting [5]); 0.0025 mg/kg in test [2]; 0.02 mg/kg in test [3] (setting [6]); 0.00031 mg/kg in test [3] (setting [7]).

In the case of `Cc1nc2ccccn2c(=O)c1CCN1CCN(c2n[nH]c3ccccc23)CC1` [Compound 41], the ED50 in test [4] was 1.25 mg/kg; in test [1] it was 0.08 mg/kg; in test [2], 0.03 mg/kg; in test [3] (setting [6]), 0.04 mg/kg; in test [3] (setting [7]), 0.005 mg/kg.

For `Cc1nc2n(c(=O)c1CCN1CCN(c3n[nH]c4cc(F)ccc34)CC1)CCCC2C` (stereo not drawn) [Compound 56], the ED50 in test [4] worked out at 0.16 mg/kg; in test [1] (setting [5]), 0.08 mg/kg; in test [2] it was 0.00045 mg/kg; in test [3] (setting [6]) it was 0.08 mg/kg; in test [3] (setting [7]), 0.005 mg/kg.

Take `Cc1nc2n(c(=O)c1CCN1CCN(c3noc4cc(F)ccc34)CC1)CCS2` [Compound 3, 6-[2-[4-(6-fluoro-1,2-benzisoxazol-3-yl)-1-piperazinyl]ethyl]-2,3-dihydro-7-methyl-5H-thiazolo[3,2-a]pyrimidin-5-one]: the ED50 worked out at 0.08 mg/kg in test [4]; 0.02 mg/kg in test [1] (setting [5]); 0.07 mg/kg in test [2]; 0.005 mg/kg in test [3] (setting [6]); 0.00125 mg/kg in test [3] (setting [7]).

For `Cc1nc2ccccn2c(=O)c1CCN1CCN(c2noc3cc(F)ccc23)CC1` [Compound 15], the ED50 in test [4] is 0.31 mg/kg; in test [1] (setting [5]) it was 0.04 mg/kg; in test [2] it was 0.015 mg/kg; in test [3] (setting [6]), 0.08 mg/kg; in test [3] (setting [7]), 0.005 mg/kg.

With `Cc1nc2n(c(=O)c1CCN1CCN(c3noc4cc(F)ccc34)CC1)CCCS2` [Compound 25], the ED50 in test [4] was 0.31 mg/kg; in test [1] (setting [5]) it was 0.08 mg/kg; in test [2], 0.06 mg/kg; in test [3] (setting [6]), 0.08 mg/kg; in test [3] (setting [7]) it was not above 0.01 mg/kg.

Consider `Cc1nc2n(c(=O)c1CCN1CCN(c3noc4ccccc34)CC1)CCS2` [Compound 27], for which the ED50 in test [4] is 0.31 mg/kg; in test [1] (setting [5]), 0.03 mg/kg; in test [2], 0.06 mg/kg; in test [3] (setting [6]), 0.03 mg/kg; in test [3] (setting [7]), 0.00125 mg/kg.

As for `Cc1nc2sccn2c(=O)c1CCN1CCN(c2n[nH]c3ccccc23)CC1` [Compound 64], the ED50 in test [4] came to 1.25 mg/kg; in test [1], 0.08 mg/kg; in test [3] (setting [6]), 0.08 mg/kg; in test [3] (setting [7]) it was 0.005 mg/kg.

Take `Cc1nc2sccn2c(=O)c1CCN1CCN(c2noc3ccccc23)CC1` [Compound 31]: the ED50 is 1.25 mg/kg in test [4]; 0.03 mg/kg in test [1]; 0.03 mg/kg in test [2]; 0.02 mg/kg in test [3] (setting [6]); 0.00031 mg/kg in test [3] (setting [7]).

Take `Cc1nc2ccccn2c(=O)c1CCN1CCN(c2nsc3ccccc23)CC1` [Compound 11]: the ED50 in test [4] was 1.25 mg/kg; in test [1], 0.08 mg/kg; in test [2], 0.45 mg/kg; in test [3] (setting [6]) it was 0.08 mg/kg; in test [3] (setting [7]), 0.00031 mg/kg.

For the compound `Cc1nc2sccn2c(=O)c1CCN1CCN(c2n[nH]c3cc(F)ccc23)CC1` [Compound 63], the ED50 in test [4] was 0.16 mg/kg; in test [1] (setting [5]) it was 0.02 mg/kg; in test [2], 0.001 mg/kg; in test [3] (setting [6]), 0.02 mg/kg; in test [3] (setting [7]), 0.00125 mg/kg.

For the compound `Cc1nc2n(c(=O)c1CCN1CCN(c3nsc4ccccc34)CC1)CCS2` [Compound 26], the ED50 in test [4] was determined as 5 mg/kg; in test [1] (setting [5]) it was 0.08 mg/kg; in test [2], 0.03 mg/kg; in test [3] (setting [6]), 0.02 mg/kg; in test [3] (setting [7]), 0.00125 mg/kg.

Consider `Cc1nc2scc(C)n2c(=O)c1CCN1CCN(c2noc3cc(F)ccc23)CC1` [Compound 39], for which the ED50 was 0.31 mg/kg in test [4]; 0.08 mg/kg in test [1] (setting [5]); 0.03 mg/kg in test [2]; 0.04 mg/kg in test [3] (setting [6]); less than 0.04 mg/kg in test [3] (setting [7]).

In the case of `Cc1nc2n(c(=O)c1CCN1CCN(c3noc4cc(F)ccc34)CC1)CCCC2` [Compound 20], the ED50 is 0.08 mg/kg in test [1] (setting [5]), 0.015 mg/kg in test [2], 0.08 mg/kg in test [3] (setting [6]) and 0.005 mg/kg in test [3] (setting [7]).

Turning to `Cc1nc2c(C)cccn2c(=O)c1CCN1CCN(c2n[nH]c3cc(F)ccc23)CC1` [Compound 47], the ED50 in test [4] worked out at 0.08 mg/kg; in test [1] (setting [5]), 0.04 mg/kg; in test [2], 0.001 mg/kg; in test [3] (setting [6]), 0.08 mg/kg; in test [3] (setting [7]), 0.000125 mg/kg.

For the compound `Cc1nc2n(c(=O)c1CCN1CCN(c3nsc4ccccc34)CC1)CCCC2C` (stereo not drawn) [Compound 55], the ED50 in test [4] was 10 mg/kg; in test [1] (setting [5]) it was 0.04 mg/kg; in test [2], more than 0.016 mg/kg; in test [3] (setting [6]), 0.04 mg/kg; in test [3] (setting [7]), 0.0025 mg/kg.

With `Cc1nc2scc(C)n2c(=O)c1CCN1CCN(c2n[nH]c3ccccc23)CC1` [Compound 65], the ED50 came out at 1.25 mg/kg in test [4], 0.08 mg/kg in test [1], 0.04 mg/kg in test [3] (setting [6]) and 0.00063 mg/kg in test [3] (setting [7]).
